# Experimental data taken from patent publication US20150329558A1, “FUSED HETEROCYCLIC COMPOUNDS AS ION CHANNEL MODULATORS” (Gilead Sciences, Inc., priority 2011, published 2015).
# Tests used:
# [1] = Microsomal stability assay, dog; assay type: in vitro ADME; conditions: metabolic stability, dog liver microsomes 0.5 mg/mL, substrate 3 uM
# Summary of the method: (§1)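 Liver microsomes at 0.5 mg/mL protein in 100 mM KPO4 buffer, incubated with 3 uM compound and NADPH-regenerating system, run in duplicate. Samples taken at 2, 12, 25, 45 and 65 min and quenched in MeOH/ACN/water before analysis.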
# [2] = target: T1, Human Nav1.2 (Homo sapiens, UniProt Q99250); experiment: Nav1.2 use-dependent block, whole-cell voltage clamp; assay type: cell-based; conditions: use-dependent block 10 Hz, read-out: NAv1.2*-CHAN TEST-UDB-10 HZ-
# T1 construct: expressed in transfected cells
# T1 sequence (Q99250 whole entry): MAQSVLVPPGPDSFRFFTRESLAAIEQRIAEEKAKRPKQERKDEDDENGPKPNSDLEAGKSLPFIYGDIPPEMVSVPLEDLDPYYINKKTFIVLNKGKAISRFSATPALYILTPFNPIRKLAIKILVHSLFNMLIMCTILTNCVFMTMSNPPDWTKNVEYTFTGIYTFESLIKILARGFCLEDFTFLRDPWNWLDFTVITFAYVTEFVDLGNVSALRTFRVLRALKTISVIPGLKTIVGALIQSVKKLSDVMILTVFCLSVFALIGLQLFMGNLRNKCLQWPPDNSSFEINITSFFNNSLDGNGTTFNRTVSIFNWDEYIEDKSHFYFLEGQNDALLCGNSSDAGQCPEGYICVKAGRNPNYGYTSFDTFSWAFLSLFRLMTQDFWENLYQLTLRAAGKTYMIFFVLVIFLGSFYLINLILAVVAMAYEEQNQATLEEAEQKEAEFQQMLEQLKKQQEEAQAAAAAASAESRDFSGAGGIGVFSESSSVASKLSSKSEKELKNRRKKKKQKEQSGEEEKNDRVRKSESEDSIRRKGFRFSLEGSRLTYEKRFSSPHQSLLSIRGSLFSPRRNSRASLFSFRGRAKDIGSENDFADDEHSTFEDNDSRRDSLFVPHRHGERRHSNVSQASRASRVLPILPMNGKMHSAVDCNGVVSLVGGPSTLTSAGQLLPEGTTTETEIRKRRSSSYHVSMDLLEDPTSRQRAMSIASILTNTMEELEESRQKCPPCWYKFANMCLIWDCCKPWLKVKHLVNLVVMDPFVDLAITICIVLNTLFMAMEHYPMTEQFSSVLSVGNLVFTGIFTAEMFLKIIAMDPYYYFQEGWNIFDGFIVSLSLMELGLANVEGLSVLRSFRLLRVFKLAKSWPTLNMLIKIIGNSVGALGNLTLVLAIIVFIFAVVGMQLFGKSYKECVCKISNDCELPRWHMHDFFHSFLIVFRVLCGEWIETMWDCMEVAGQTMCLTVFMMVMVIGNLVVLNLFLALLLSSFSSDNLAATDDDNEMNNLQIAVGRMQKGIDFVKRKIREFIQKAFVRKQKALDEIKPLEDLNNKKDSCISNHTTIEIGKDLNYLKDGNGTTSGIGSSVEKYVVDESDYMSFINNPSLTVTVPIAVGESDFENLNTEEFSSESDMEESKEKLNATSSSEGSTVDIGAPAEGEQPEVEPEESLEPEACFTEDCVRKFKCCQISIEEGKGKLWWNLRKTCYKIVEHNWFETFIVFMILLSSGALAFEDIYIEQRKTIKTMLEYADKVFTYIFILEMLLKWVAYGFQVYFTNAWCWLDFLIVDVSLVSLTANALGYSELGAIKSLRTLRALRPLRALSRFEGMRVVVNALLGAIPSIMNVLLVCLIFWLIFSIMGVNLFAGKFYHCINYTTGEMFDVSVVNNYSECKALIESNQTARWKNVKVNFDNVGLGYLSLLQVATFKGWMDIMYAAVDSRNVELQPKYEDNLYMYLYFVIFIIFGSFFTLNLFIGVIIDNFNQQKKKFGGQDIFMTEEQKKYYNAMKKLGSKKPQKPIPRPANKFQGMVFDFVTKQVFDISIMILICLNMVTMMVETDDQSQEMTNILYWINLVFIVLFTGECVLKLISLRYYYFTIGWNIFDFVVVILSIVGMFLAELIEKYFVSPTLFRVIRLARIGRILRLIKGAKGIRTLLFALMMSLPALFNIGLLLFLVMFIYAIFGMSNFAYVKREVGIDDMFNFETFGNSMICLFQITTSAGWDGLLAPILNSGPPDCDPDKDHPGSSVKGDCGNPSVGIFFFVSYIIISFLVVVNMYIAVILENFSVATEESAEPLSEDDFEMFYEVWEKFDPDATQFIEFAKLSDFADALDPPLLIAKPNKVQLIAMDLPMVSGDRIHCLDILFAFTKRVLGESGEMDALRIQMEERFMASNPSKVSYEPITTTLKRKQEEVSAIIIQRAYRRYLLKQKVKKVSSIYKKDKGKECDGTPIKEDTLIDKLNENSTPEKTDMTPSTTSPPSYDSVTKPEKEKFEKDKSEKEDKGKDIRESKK
# Excerpt: Wild-type (WT) cDNA stably transfected in Chinese hamster ovary (CHO) cells is used to record INa. Unless otherwise noted, all reagents are purchased from Sigma-Aldrich (St Louis, Mo., U.S.A.).
# Whole-cell voltage-clamp recordings are used to measure the biophysical properties of WT. Briefly, the pipette solution consists of (in mM) 110 CsF, 10 NaF, 20 CsCl, 2 EGTA, 10 HEPES, with a pH of 7.35 and osmolarity of 300 mOsmol/kg. The bath (control) solution contains in (mM): 145 NaCl, 4 KCl, 1.8 CaCl2, 1 MgCl2, 10 dextrose, 10 HEPES, with a pH of 7.35 and osmolarity of 310 mOsmol/kg. Cells are allowed to stabilize for 10 min after establishment of the whole-cell configuration before current is measured. Series resistance is compensated 90% to assure that the command potential is reached within microseconds with a voltage error <2 mV. Leak currents are subtracted by using an online P/4 procedure and all currents are low-pass Bessel filtered at 5 kHz and digitized at 50 kHz.
# Tonic block of peak current is measured using a step to −10 mV (20 ms) from a holding potential of −120 mV (0.2 Hz). Use-dependent block of peak current is measured during pulse number 300 of a pulse train (−10 mV, 5 ms, 300 pulses, 10 Hz or 25 Hz) from a holding potential of −120 mV. Two sequential pulse train stimulations are averaged to obtain mean current traces for each recording condition, which are then used for offline subtraction and analysis.
# For use-dependent studies, cells are stimulated with depolarizing pulse trains (−10 mV, 5 ms, 300 pulses, 10 and 25 Hz) from a holding potential of −120 mV. Currents are then normalized to the peak current recorded in response to the first pulse in each frequency train. For tonic block studies, peak current is evaluated in response to a 20 ms depolarization to −10 mV (0.2 Hz). Data analysis is performed using Clampfit 9.2 (Axon Instruments, Union City, Calif., U.S.A), Excel 2002 (Microsoft, Seattle, Wash., U.S.A.), and OriginPro 7.0 (OriginLab, Northampton, Mass., U.S.A) software. Results are presented as mean±SEM.
# A stock solution of 10 mM compound of Formula I is prepared in 0.1 M HCl or DMSO. A fresh dilution of the compound of Formula I in the bath solution is prepared every experimental day and the pH is readjusted to 7.35 as necessary. The final DMSO concentration was kept at 0.1% in all solutions. Direct application of the perfusion solution to the clamped cell is achieved using the Perfusion Pencil system (Automate, Berkeley, Calif.). Direct cell perfusion is driven by gravity at a flow rate of 350 μL/min using a 250 micron tip. This system sequesters the clamped cell within a perfusion stream and enables complete solution exchange within 1 second. The clamped cell is perfused continuously starting immediately after establishing the whole-cell configuration. Control currents are measured during control solution perfusion.
# Solutions are perfused for three minutes prior to current recordings to allow equilibrium (tonic) drug block. Tonic block of peak currents is measured from this steady-state condition. Three sequential current traces are averaged to obtain a mean current for each recording. The mean current traces are utilized for offline analysis. Use-dependent block of peak current is measured during pulse number 300 of the pulse train, (−10 mV, 5 ms, 300 pulses, 10 Hz) from a holding potential of −120 mV. Two sequential pulse train stimulations are averaged to obtain mean current traces for each recording condition, which are then used for offline subtraction and analysis. Where appropriate, concentration inhibition curves are fit with the Hill equation: I/Imax=1/[1+10̂(log IC50−I)*k], where IC50 is the concentration that produces half inhibition and k is the Hill slope factor.
# [3] = Microsomal stability assay, rat; assay type: in vitro ADME; conditions: metabolic stability, rat liver microsomes 0.5 mg/mL, substrate 3 uM
# Summary of the method: as §1
MS Dog THalf [1] [min],inhibition at 1 µM [2] [%],MS Rat THalf [3] [min],SMILES
129,-6,72,"COc1cc(OC)nc(Cn2ncc3ccc(-c4ccc(OC(F)(F)F)cc4)cc3c2=O)n1 [III-19, 2-((4,6-dimethoxypyrimidin-2-yl)methyl)-7-(4-(trifluoromethoxy)phenyl)phthalazin-1 (2H)-one]"
2,,2,"O=c1c2cc(-c3ccc(OC(F)(F)F)cc3)ccc2nnn1CC1(CN2CCOCC2)CC1 [II-40, 3-((1-(morpholinomethyl)cyclopropyl)methyl)-6-(4-(trifluoromethoxy)phenyl)benzo[d][1,2,3]triazin-4(3H)-one]"
27,3.5,81,"O=c1c2cc(-c3ccc(OC(F)(F)F)cc3)ccc2cnn1CCn1cccn1 [III-9, 2-(2-(1H-pyrazol-1-yl)ethyl)-7-(4-(trifluoromethoxy)phenyl)phthalazin-1(2H)-one]"
66,5.5,56,"O=c1c2cc(-c3ccc(OC(F)(F)F)cc3)ccc2cnn1Cc1ncccn1 [III-5, 2-(pyrimidin-2-ylmethyl)-7-(4-(trifluoromethoxy)phenyl)phthalazin-1(2H)-one]"
158,7.1,190,"Cc1noc(Cn2cnc3ccc(-c4ccc(OC(F)(F)F)cc4)cc3c2=O)n1 [IV-6, 3-((3-methyl-1,2,4-oxadiazol-5-yl)methyl)-6-(4-(trifluoromethoxy)phenyl)quinazolin-4(3H)-one]"
256,16.8,281,"Cn1cnc(C(=O)N2CCc3ccc(-c4ccc(C(F)(F)F)cc4)cc3C2)c1 [IX-39, (1-methyl-1H-imidazol-4-yl)(7-(4-(trifluoromethyl)phenyl)-3,4-dihydroisoquinolin-2(1H)-yl)methanone]"
270,,> 395,"O=c1c2cc(-c3ccc(OC(F)(F)F)cc3)ccc2nnn1Cc1nnc(C2CC2)o1 [II-67, 3-((5-cyclopropyl-1,3,4-oxadiazol-2-yl)methyl)-6-(4-(trifluoromethoxy)phenyl)benzo[d][1,2,3]triazin-4(3H)-one]"
,17.6,,"O=C1c2cc(-c3ccc(OC(F)(F)F)cc3)ccc2OCN1Cc1ncccn1 [VIII-20, 3-(pyrimidin-2-ylmethyl)-6-(4-(trifluoromethoxy)phenyl)-2H-benzo[e][1,3]oxazin-4(3H)-one]"
74,,49,"O=c1c2cc(-c3ccc(OC(F)(F)F)cc3)ccc2nnn1CCc1ncccn1 [II-18, 3-(2-(pyrimidin-2-yl)ethyl)-6-(4-(trifluoromethoxy)phenyl)benzo[d][1,2,3]triazin-4(3H)-one]"
392,18.2,152,"CC1Oc2ccc(-c3ccc(OC(F)(F)F)cc3)cc2C(=O)N1Cc1ncccn1 (centres unmarked) [VIII-7, 2-methyl-3-(pyrimidin-2-ylmethyl)-6-(4-(trifluoromethoxy)phenyl)-2H-benzo[e][1,3]oxazin-4(3H)-one]"
> 395,8.62,> 395,"O=C(c1ncccn1)N1CCc2ccc(-c3ccc(C(F)(F)F)cc3)cc2C1 [IX-7, pyrimidin-2-yl(7-(4-(trifluoromethyl)phenyl)-3,4-dihydroisoquinolin-2(1H)-yl)methanone]"
157,3.8,150,"O=C1c2cc(-c3ccc(OC(F)(F)F)cc3)ccc2CCN1Cc1ncccn1 [IX-1, 2-(pyrimidin-2-ylmethyl)-7-(4-(trifluoromethoxy)phenyl)-3,4-dihydroisoquinolin-1(2H)-one]"
28,,176,"O=c1c2cc(-c3ccc(OC(F)(F)F)cc3)ccc2nnn1Cc1noc(-c2ccccn2)n1 [II-54, 3-((5-(pyridin-2-yl)-1,2,4-oxadiazol-3-yl)methyl)-6-(4-(trifluoromethoxy)phenyl)benzo[d][1,2,3]triazin-4(3H)-one]"
> 395,10.4,302,"O=C(c1cccnn1)N1CCc2ccc(-c3ccc(C(F)(F)F)cc3)cc2C1 [IX-17, Pyridazin-3-yl(7-(4-(trifluoromethyl)phenyl)-3,4-dihydroisoquinolin-2 (1H)-yl) methanone]"
51,28.8,103,"O=c1c2cc(-c3ccc(OC(F)(F)F)cc3)ccc2cnn1CCOc1ncccn1 [III-28, 2-(2-(pyrimidin-2-yloxy)ethyl)-7-(4-(trifluoromethoxy)phenyl)phthalazin-1 (2H)-one]"
284,-0.7,375,"O=c1c2cc(-c3ccc(OC(F)(F)F)cc3)ccc2nnn1Cc1noc(C2CC2)n1 [II-14, 3-((5-cyclopropyl-1,2,4-oxadiazol-3-yl)methyl)-6-(4-(trifluoromethoxy)phenyl)benzo[d][1,2,3]triazin-4(3H)-one]"
50,,24,"O=c1c2cc(-c3ccc(OC(F)(F)F)cc3)ccc2nnn1CCc1ccncn1 [II-17, 3-(2-(pyrimidin-4-yl)ethyl)-6-(4-(trifluoromethoxy)phenyl)benzo[d][1,2,3]triazin-4(3H)-one]"
164,11.7,227,"O=C1c2cc(-c3ccc(OC(F)(F)F)cc3)ccc2OCN1Cc1ccccn1 [VIII-3, 3-(pyridin-2-ylmethyl)-6-(4-(trifluoromethoxy)phenyl)-2H-benzo[e][1,3]oxazin-4(3H)-one]"
356,8,243,"Cc1nc(Cn2cnc3ccc(-c4ccc(OC(F)(F)F)cc4)cc3c2=O)no1 [IV-9, 3-((5-methyl-1,2,4-oxadiazol-3-yl)methyl)-6-(4-(trifluoromethoxy)phenyl)quinazolin-4(3H)-one]"
124,10.9,108,"N#Cc1ccnc(OCCn2nnc3ccc(-c4ccc(OC(F)(F)F)cc4)cc3c2=O)n1 [II-36, 2-(2-(4-oxo-6-(4-(trifluoromethoxy)phenyl)benzo[d][1,2,3]triazin-3(4H)-yl)ethoxy)pyrimidine-4-carbonitrile]"
210,16,211,"O=C1c2cc(-c3ccc(C(F)(F)F)cc3)ccc2OCN1Cc1ccccn1 [VIII-1, 3-(pyridin-2-ylmethyl)-6-(4-(trifluoromethyl)phenyl)-2H-benzo[e][1,3]oxazin-4(3H)-one]"
36,16.9,237,"O=c1c2cc(-c3ccc(OC(F)(F)F)cc3)ccc2nnn1CCOc1ncccn1 [II-32, 3-(2-(pyrimidin-2-yloxy)ethyl)-6-(4-(trifluoromethoxy)phenyl)benzo[d][1,2,3]triazin-4(3H)-one]"
320,-4.1,355,"O=C1c2cc(-c3ccc(C(F)(F)F)cc3)ccc2CCN1Cc1ncccn1 [IX-3, 2-(pyrimidin-2-ylmethyl)-7-(4-(trifluoromethyl)phenyl)-3,4-dihydroisoquinolin-1(2H)-one]"
68,8,298,"O=c1c2cc(-c3ccc(OC(F)(F)F)cc3)ccc2nnn1C1CCNCC1 [II-38, 3-(piperidin-4-yl)-6-(4-(trifluoromethoxy)phenyl)benzo[d][1,2,3]triazin-4(3H)-one]"
